# How the values were obtained:
# [1] = conditioned place preference (abuse potential); format: in vivo, SD rats
# Description: In conditioned place preference a chamber with distinct cues is repeatedly paired with administration of the test drug. A second chamber is repeatedly paired with a control injection. After conditioning, a test phase allows the rat to move between the chambers. If a drug is “rewarding” (i.e. has abuse potential), the rat spends more time in the drug-associated chamber. If it is aversive, the opposite result is obtained.
# Methods: 6 male and 6 female SD rats were used for each drug and dose. Test drugs (5 or 25 mg/kg lobinaline, or 25 mg/Kg of lobinaline bi-N-oxide S.C) were paired with the “less preferred” compartment (standard for drugs that may be weakly reinforcing) for 20 minutes. On the next day, rats received a control (DMSO/saline) injection and were placed in the preferred chamber. After three repeated pairings (test and control), the subjects were given access to both chambers and the time spent in each compartment was recorded and scored by an observer blind to treatment. Analysis was by two way ANOVA with post hoc Bonnferoni with significance set at p<0.05. Results. Most animals spent most of the test period in the compartment originally preferred in the drug-free state, and there were no significant differences between drug and vehicle controls.
# [2] = Drinking in the dark model of binge drinking; format: in vivo, C57Bl/6J mice; details: 25 mg/Kg SC
# Method: “Drinking in the dark” is a model for binge drinking in which C57Bl/6J mice are given limited access to alcohol during their dark cycle. With repeated daily access, mice will voluntarily drink to blood alcohol levels above 150 mg/dl. Lobeline reduces alcohol consumption in this model and it has predictive validity in that both naltrexone and acamprosate are active.
# Methods: 8 male and 8 female mice were used for each of these studies and scoring was by an observer blind to treatment. Statistical analysis was by ANOVA followed by Bonnferoni posthoc with significance at p<0.05.
# DAT = DAT (Rattus norvegicus, UniProt P23977); assay: [3H]DA uptake into rat striatal synaptosomes; format: biochemical; set-up: from tissue; host or cells: rat striatum (synaptosomes; homogenate); details: compound added 15 min before [3H]DA, 30 min at 37° C, read-out: IC50, inhibition of [3H]-DA uptake
# DAT, sequence (P23977 whole entry): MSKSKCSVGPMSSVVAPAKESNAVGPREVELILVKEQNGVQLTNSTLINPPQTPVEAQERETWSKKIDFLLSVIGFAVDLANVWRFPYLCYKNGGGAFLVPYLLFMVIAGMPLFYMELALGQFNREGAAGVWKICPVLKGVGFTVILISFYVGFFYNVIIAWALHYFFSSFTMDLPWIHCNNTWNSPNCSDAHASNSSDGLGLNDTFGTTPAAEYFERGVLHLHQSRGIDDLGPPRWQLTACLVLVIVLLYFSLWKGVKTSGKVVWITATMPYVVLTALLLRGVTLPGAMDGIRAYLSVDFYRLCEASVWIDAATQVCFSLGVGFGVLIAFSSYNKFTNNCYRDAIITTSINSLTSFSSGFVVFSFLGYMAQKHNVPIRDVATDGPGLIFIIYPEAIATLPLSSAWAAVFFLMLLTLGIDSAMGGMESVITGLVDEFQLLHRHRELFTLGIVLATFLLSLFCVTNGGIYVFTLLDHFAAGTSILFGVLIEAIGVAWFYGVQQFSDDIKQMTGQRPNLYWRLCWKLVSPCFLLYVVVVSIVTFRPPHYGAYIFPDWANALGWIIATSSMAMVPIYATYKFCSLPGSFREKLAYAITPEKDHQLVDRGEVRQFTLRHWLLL
# Method: Lobinaline or the N-oxides were added 15 min before addition of [3H]DA. Synaptosomal uptake of [3H]DA was measured after 30 min incubation at 37° C.
compound,measurement,setting,value
CN1CCCC2C(c3ccccc3)C(C3=NCCCC3)C(c3ccccc3)CC21 (stereo not shown) [lobinaline],overt toxicity,[1]; after 3 repeated drug administrations,no signs of overt toxicity
same,sedation or locomotor activation,"[1]; lobinaline 5 or 25 mg/kg, bi-N-oxide 25 mg/Kg S.C",no sedation or locomotor activation
same,conditioned place preference or aversion,"[1]; lobinaline 5 or 25 mg/kg, bi-N-oxide 25 mg/Kg S.C, three pairings",neither lobinaline nor the lobinaline bi-N-oxide produced conditioned place preference or aversion
same,food or water intake,[2],no reduction in food or water intake
same,overt toxicity,[2],neither compound produced overt toxicity
same,inhibition of alcohol consumption,[2]; males and females,~40%
same,IC50,DAT,359 nM
